Measurements published in patent publication US12157739B2, “Hypoxanthine compounds” (KISSEI PHARMACEUTICAL CO., LTD., priority 2018, dated 2024).
Where two headings read alike, the source gives them in different places.

How the values were obtained:
[1] = system: TNBS induced colitis model rat; experiment: Therapeutic effect in TNBS induced colitis model rat (intestinal permeability of FITC); format: in vivo; settings: po, 72 h, SD rats, mean, read-out: Inhibition (%): suppressive rate on the intestinal permeability; for inhibition in vivo at 3 mg/kg: 3 mg/kg orally once a day for 3 days
Experimental: SD rats: 8-weeks-old male SLC (Japan SLC) were used. Under pentobarbital anesthesia, 300 μL of TNBS (28 mg/mL) which was prepared by 50% ethanol was administered at a point 8 cm from anus in large intestine to cause inflammation. To the solvent-treated group was administrated 300 μL of 50% ethanol. Animals were fasted for 48 hours prior to administration of TNBS. Test compounds (3 mg/kg or 10 mg/kg) prepared by 0.05% methylcellulose solution were orally administered once a day from next day, and it was administered for a total of 3 days. After administering for 3 days, 50 mg/kg FITC was orally administered at 4 hours after administration. Blood samples were collected from jugular vein under isoflurane anesthesia after 4 hours. The serum was centrifuged and fluorescence intensity was detected by PHERAstar FSX (BMG Labtech) to measure the concentration of FITC permeating into circulating blood through the mesentery. The suppressive rate on the intestinal permeability of test compounds was calculated based on the value of test compounds-free group as 0 and the value of TNBS-untreated group as 100.

[2] = Rat PK study: concentration of compounds in large intestine tissue and plasma; format: in vivo; settings: male, 3 mg/kg oral, non-fasted SD rats; for Kp at 8 h: large intestine tissue / plasma, read-out: C/P: ratio of Colon and Plasma; for Cmax: read-out: Cmax: maximum plasma concentration
Experimental: Test compounds (3 mg/kg/5 mL) prepared by 0.05% methylcellulose were orally administered to non-fasted rats (SD, 8-weeks-old, male, Japan SLC). Blood samples were collected from jugular vein at 0.25, 0.5, 1, 2, 4, 6 and 8 hours after the administration. Laparotomy was performed under isoflurane anesthesia and large intestine was isolated. Collected distal large intestine (about 5 cm) was cut open, and then the large intestine was washed with saline on a dish. After washing, the large intestine was minced by a small scissors. About 150 mg thereof was moved to tube. To the tube was added 100 μL of saline, the mixture was homogenized using shake master (1000 rpm×30 minutes). Samples were prepared by the addition with quadruple volume of saline as final volume. The concentrations of the test compound in large intestine tissue and plasma were measured through a quantitative analysis using liquid chromatography-mass spectrometry (LC/MS).
• Cmax: maximum plasma concentration of test compounds in the case of oral administration (ng/mL) • AUC: area under the plasma test compound concentration-time curve (ng*min/mL) • Plasma: plasma test compound concentration after 8 hours (ng/ml) • Colon: concentrations of the test compound in large intestine tissue after 8 hours (ng/g) • C/P: ratio of the above Colon and Plasma

human PHD2184-418 = human PHD2184-418 (Homo sapiens (Human), UniProt Q9GZT9); experiment: PHD2 inhibitory test (fluorescence polarization); format: binding; settings: human PHD2184-418, FITC-labeled HIF-1α556-574 substrate, 2 μM 2-oxoglutarate, 37° C. 60 minutes
Experimental: (1) Expression and Preparation of Human PHD2184-418
Human PHD2184-418 containing amino acid residues 184 to 418 of the protein represented by CAC42509 (GenBank accession ID) was expressed and prepared by the following method.
An expression construct of human PHD2184-418 containing N-terminal histidine tag was introduced into pET-30a (+) vector, and the sequence was confirmed. This vector was introduced into BL21 (DE3) strain and cultured at 37° C. in LB medium containing antibiotics. After culturing, a cell lysis solution was added to the cells, and then the cells were disrupted by sonication. The disrupted suspension was centrifuged and the supernatant was purified by Ni column to give human PHD2184-418.
Human HIF-1α556-574 (FITC-labeled HIF-1α556-574), containing N-terminal FITC-Ahx, containing amino acid residues 556 to 574 (partial peptide) of HIF-1α was used as a substrate. Using FITC-labeled HIF-1α556-574, the competitive inhibition between 2-oxoglutarate and test compounds (PHD inhibitor) was evaluated based on the change in fluorescence polarization by the following method.
An enzyme (human PHD2184-418) and the substrate were diluted with an assay buffer (pH 7.4) containing 10 mM HEPES, 150 mM NaCl, 10 μM MnCl2-4H2O, 2 μM 2-oxoglutarate and 0.05% Tween-20. Test compounds were diluted with DMSO. Test compounds and human PHD2184-418 was added to the 384-well plate (Corning, black, opaque bottom) in advance. The reaction was started by the addition of FITC-labeled HIF-1α556-574. After incubating at 37° C. for 60 minutes, fluorescence polarization (excitation wavelength: 470 nm, fluorescence wavelength: 530 nm) was measured by PHERAstar FSX (BMG Labtech). Fluorescence polarization of each well was measured, and human PHD2 binding inhibitory activity of test compounds was calculated based on the value of test compound-free group.

[3] = Rat PK study: concentration of compounds in large intestine tissue and plasma; format: in vivo; settings: male, plasma, 3 mg/kg oral, non-fasted SD rats, read-out: AUC: area under the plasma test compound concentration-time curve (converted)
[4] = large intestine tissue (distal, colon), read-out: Colon: concentration in large intestine tissue after 8 hours
[5] = plasma, read-out: Plasma: plasma test compound concentration after 8 hours

Sequence of human PHD2184-418 (Q9GZT9 184-418): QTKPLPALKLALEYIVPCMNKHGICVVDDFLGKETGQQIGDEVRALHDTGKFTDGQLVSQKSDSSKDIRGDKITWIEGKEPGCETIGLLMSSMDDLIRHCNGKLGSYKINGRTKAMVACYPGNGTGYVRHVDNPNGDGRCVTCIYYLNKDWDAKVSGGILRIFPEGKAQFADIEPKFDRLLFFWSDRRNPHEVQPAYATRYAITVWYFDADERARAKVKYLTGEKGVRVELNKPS

Compound	inhibition in vivo at 10 mg/kg ([1]; 10 mg/kg orally once a day for 3 days)	concentration at 8 h [2, 4]	Kp at 8 h [2]	concentration at 8 h [2, 5]	Cmax ([2]; plasma)	IC50 (human PHD2184-418)	AUC [3]	inhibition in vivo at 3 mg/kg [1]
O=C(O)c1cnn(-c2nc3ncn(Cc4ccc(-c5ccccc5)cc4)c3c(=O)[nH]2)c1 [Example 1, 1-(7-([1,1′-Biphenyl]-4-ylmethyl)-6-oxo-6,7-dihydro-1H-purin-2-yl)-1H-pyrazole-4-carboxylic acid]	54%	109 ng/g	36	3 ng/mL	11 ng/mL	0.09 µM	46.3 ng·h/mL	–
O=C(O)c1cnn(-c2nc3ncn(COCc4ccccc4)c3c(=O)[nH]2)c1 [Example 2, 1-(7-((Benzyloxy)methyl)-6-oxo-6,7-dihydro-1H-purin-2-yl)-1H-pyrazole-4-carboxylic acid]	–	188 ng/g	> 188	< 1 ng/mL	3 ng/mL	0.64 µM	0.833 ng·h/mL	51%
O=C(O)c1cnn(-c2nc3ncn(Cc4ccc(O)cc4)c3c(=O)[nH]2)c1 [Example 3, 1-(7-(4-Hydroxybenzyl)-6-oxo-6,7-dihydro-1H-purin-2-yl)-1H-pyrazole-4-carboxylic acid]	–	87 ng/g	> 87	< 1 ng/mL	6 ng/mL	0.64 µM	3.27 ng·h/mL	93%
CS(=O)(=O)c1ccc(Cn2cnc3nc(-n4cc(C(=O)O)cn4)[nH]c(=O)c32)cc1 [Example 4, 1-(7-(4-(Methylsulfonyl)benzyl)-6-oxo-6,7-dihydro-1H-purin-2-yl)-1H-pyrazole-4-carboxylic acid]	–	94 ng/g	47	2 ng/mL	6 ng/mL	0.53 µM	29.2 ng·h/mL	66%
COc1ccc(Cn2cnc3nc(-n4cc(C(=O)O)cn4)[nH]c(=O)c32)cc1 [Example 11, 1-(7-(4-Methoxybenzyl)-6-oxo-6,7-dihydro-1H-purin-2-yl)-1H-pyrazole-4-carboxylic acid]	–	–	–	–	10 ng/mL	–	18.2 ng·h/mL	83%
O=C(O)c1ccc(Cn2cnc3nc(-n4cc(C(=O)O)cn4)[nH]c(=O)c32)cc1 [Example 12, 1-(7-(4-Carboxybenzyl)-6-oxo-6,7-dihydro-1H-purin-2-yl)-1H-pyrazole-4-carboxylic acid]	–	67 ng/g	34	2 ng/mL	16 ng/mL	0.61 µM	49.9 ng·h/mL	78%
O=C(O)c1cnn(-c2nc3c(ncn3Cc3ccc(O)cc3)c(=O)[nH]2)c1 [Example 29, 1-(9-(4-Hydroxybenzyl)-6-oxo-6,9-dihydro-1H-purin-2-yl)-1H-pyrazole-4-carboxylic acid]	–	646 ng/g	> 646	< 1 ng/mL	< 1 ng/mL	0.37 µM	–	86%
COc1ccc(Cn2cnc3c(=O)[nH]c(-n4cc(C(=O)O)cn4)nc32)cc1 [Example 35, 1-(9-(4-Methoxybenzyl)-6-oxo-6,9-dihydro-1H-purin-2-yl)-1H-pyrazole-4-carboxylic acid]	–	11 ng/g	> 11	< 1 ng/mL	< 1 ng/mL	0.59 µM	–	81%
Cl.O=C(O)c1cnn(-c2nc3ncn(Cc4ccc(OCCN5CCOCC5)cc4)c3c(=O)[nH]2)c1 [Example 75, 1-(7-(4-(2-Morpholinoethoxy)benzyl)-6-oxo-6,7-dihydro-1H-purin-2-yl)-1H-pyrazole-4-carboxylic acid hydrochloride]	–	323 ng/g	> 323	1 ng/mL	4 ng/mL	0.42 µM	12.9 ng·h/mL	80%
